According to US9878982B2, “Pyridine derivatives and anti-mycobacterial use thereof” (priority 2014, dated 2018):
≈ marks a conversion by molar mass, not a printed value. Read-outs that look alike come from different tables or passages of the source.

Experiments:
M. tuberculosis H37Rv = assay: In vitro efficacy test using the H37Rv strain, Microplate Alamar Blue Assay (MABA) MIC; type: cell-based, Mycobacterium tuberculosis; conditions: for MIC: Mycobacterium tuberculosis, H37RV
Vero Cell = assay: Vero cell cytotoxicity (IC50); type: cell-based; conditions: Chlorocebus sabaeus, Vero, African green monkey kidney cells
M. tuberculosis H37R = assay: microbe, parasite or virus in culture; type: cell-based, Mycobacterium tuberculosis; conditions: for MIC: Mycobacterium tuberculosis, H37R, read-out: M. tuberculosis H37R LORA (MIC)
[1] = Hela cell cytotoxicity (CC50); conditions: human, HeLa cells (human cervical cancer cells), CC50_Hela, half of the toxic concentration
[2] = tested on: Mycobacterium smegmatis strain ATCC19420; assay: In vitro efficacy test using Mycobacterium smegmatis strain ATCC19420 (MIC); type: cell-based; conditions: CA-MHB + 0.02% Tween 80, 30° C., read after 72 hours; for MIC: Mycolicibacterium smegmatis, ATCC19420, 72 h
[3] = aerobic, 7H9 medium, Alamar Blue, read-out: M. tuberculosis H37Rv MABA (MIC)
[4] = wild-type H37Rv strain, two values per compound, read-out: MABA MIC vs. H37Rv
[5] = wild-type H37Rv strain, two values per compound

SMILES	MIC (M. tuberculosis H37Rv; [3]) [µg/mL]	IC50 (Vero Cell) [µg/mL]	MIC (M. tuberculosis H37R) [µg/mL]	CC50 [1] [µg/mL]	MIC [2] [µg/mL]	MIC (M. tuberculosis H37Rv; [4]) [µM]	MABA MIC vs. H37Rv (M. tuberculosis H37Rv; [5]) [µM]	M. tuberculosis H37Rv MABA (MIC) (M. tuberculosis H37Rv; aerobic, 7H9 medium, Alamar Blue) [µg/mL]	M. tuberculosis H37R LORA (MIC) (M. tuberculosis H37R) [µg/mL]	M. smegmatis ATCC19420 MIC [2] [µg/mL]
COc1ncc(-c2ccc(Cl)cc2)cc1C(c1ccccc1)C(O)(CCN(C)C)c1cccc(Br)c1 (single isomer, unassigned) [Compound 388, 2-(3-bromophenyl)-1-(5-(4-chlorophenyl)-2-methoxypyridin-3-yl)-4-(dimethylamino)-1-phenylbutan-2-ol]	0.062	> 32	< 0.125	26.2 (≈ 46.2 µM)	0.0156	–	–	–	–	–
COc1ncc(-c2ccc(Cl)cc2)cc1C(c1ccccc1)C(O)(CCN(C)C)c1ccc(Br)cc1 (single isomer, unassigned) [Compound 390, 2-(4-bromophenyl)-1-(5-(4-chlorophenyl)-2-methoxypyridin-3-yl)-4-(dimethylamino)-1-phenylbutan-2-ol]	0.087	> 32	< 0.125	24.1 (≈ 42.7 µM)	0.0625	–	–	–	–	–
COc1cccc(C(c2cc(-c3ccc(Cl)cc3)cnc2OC)C(O)(CCN(C)C)c2cc(Cl)cc(Cl)c2)c1OC (single isomer, unassigned) [Compound 395, 1-(5-(4-chlorophenyl)-2-methoxypyridin-3-yl)-2-(3,5-dichlorophenyl)-1-(2,3-dimethoxyphenyl)-4-(dimethylamino)butan-2-ol]	0.031	> 32	< 0.125	> 64	0.039	–	–	–	–	–
COc1cccc(C(c2cc(-c3ccc(Cl)cc3)cnc2OC)C(O)(CCN(C)C)c2cccc(Cl)c2)c1OC (single isomer, unassigned) [Compound 399]	–	–	–	> 64	≤ 0.0625	–	–	–	–	–
COc1nc(OC)c(C(c2ccccc2)C(O)(CCN(C)C)c2cccc3ccccc23)cc1-c1ccc(Cl)cc1 (single isomer, unassigned) [Compound 401, 1-(5-(4-chlorophenyl)-2,6-dimethoxypyridin-3-yl)-4-(dimethylamino)-2-(naphthalen-1-yl)-1-phenylbutan-2-ol]	0.05	> 32	0.19 (≈ 0.335 µM)	> 64	0.0312	–	–	–	–	–
COc1ncc(-c2ccccc2)cc1C(c1ccccc1)C(O)(CCN(C)C)c1cccc2ccccc12 (stereo not drawn) [Compound 9, 4-(dimethylamino)-1-(2-methoxy-5-phenylpyridin-3-yl)-2-(naphthalen-1-yl)-1-phenylbutan-2-ol]	1.08	> 50	0.72 (≈ 1.43 µM)	30.4 (≈ 60.4 µM)	0.0312	0.46	0.36	–	–	–
COc1ncc(-c2cccnc2)cc1C(c1ccccc1)C(O)(CCN(C)C)c1cccc2ccccc12 (stereo not drawn) [Compound 19, 4-(dimethylamino)-1-(6-methoxy-[3,3′-bipyridin]-5-yl)-2-(naphthalen-1-yl)-1-phenylbutan-2-ol]	2.85	> 50	3.11 (≈ 6.17 µM)	10.3 (≈ 20.4 µM)	0.5	–	–	–	–	–
COc1ncc(-c2ccccc2)cc1C(c1ccccc1)C(O)(CCN(C)C)c1ccccc1 (stereo not drawn) [Compound 22, 4-(dimethylamino)-1-(2-methoxy-5-phenylpyridin-3-yl)-1,2-diphenylbutan-2-ol]	1.48	> 50	1.15 (≈ 2.54 µM)	12 (≈ 26.4 µM)	–	–	–	–	–	–
COc1ncc(-c2ccccc2)cc1C(c1ccccc1)C(O)(CCN(C)C)c1cccc(F)c1F (stereo not drawn) [Compound 31, 2-(2,3-difluorophenyl)-4-(dimethylamino)-1-(2-methoxy-5-phenylpyridin-3-yl)-1-phenylbutan-2-ol]	0.58	> 50	0.46 (≈ 0.942 µM)	28.1 (≈ 57.5 µM)	0.25	–	–	–	–	–
COc1ncc(-c2ccccc2)cc1C(c1ccccc1)C(O)(CCN(C)C)c1cc(F)cc(F)c1 (stereo not drawn) [Compound 35, 2-(3,5-difluorophenyl)-4-(dimethylamino)-1-(2-methoxy-5-phenylpyridin-3-yl)-1-phenylbutan-2-ol]	0.73	> 50	0.37 (≈ 0.757 µM)	28.9 (≈ 59 µM)	≤ 0.0625	–	–	–	–	–
COc1ncc(-c2ccccc2)cc1C(c1ccccc1)C(O)(CCN(C)C)c1cc(F)ccc1F (stereo not drawn) [Compound 39, 2-(2,5-difluorophenyl)-4-(dimethylamino)-1-(2-methoxy-5-phenylpyridin-3-yl)-1-phenylbutan-2-ol]	0.68	> 50	0.71 (≈ 1.45 µM)	–	0.125	–	–	–	–	–
COc1ncc(-c2ccccc2)cc1C(c1cccc(Cl)c1)C(O)(CCN(C)C)c1ccccc1 (stereo not drawn) [Compound 43, 1-(3-chlorophenyl)-4-(dimethylamino)-1-(2-methoxy-5-phenylpyridin-3-yl)-2-phenylbutan-2-ol]	1.18	> 50	1.42 (≈ 2.92 µM)	–	0.125	–	–	–	–	–
COc1ncc(-c2ccccc2)cc1C(c1ccc(Cl)cc1)C(O)(CCN(C)C)c1ccccc1 (stereo not drawn) [Compound 47, 1-(4-chlorophenyl)-4-(dimethylamino)-1-(2-methoxy-5-phenylpyridin-3-yl)-2-phenylbutan-2-ol]	1.25	> 50	0.75 (≈ 1.54 µM)	–	0.125	–	–	–	–	–
COc1ncc(-c2ccccc2)cc1C(c1ccccc1F)C(O)(CCN(C)C)c1ccccc1 (stereo not drawn) [Compound 51, 4-(dimethylamino)-1-(2-fluorophenyl)-1-(2-methoxy-5-phenylpyridin-3-yl)-2-phenylbutan-2-ol]	1.2	> 50	1.77 (≈ 3.76 µM)	–	≤ 0.0625	–	–	–	–	–
COc1ncc(-c2ccccc2)cc1C(c1cccc(F)c1)C(O)(CCN(C)C)c1ccccc1 (stereo not drawn) [Compound 55, 4-(dimethylamino)-1-(3-fluorophenyl)-1-(2-methoxy-5-phenylpyridin-3-yl)-2-phenylbutan-2-ol]	1.15	> 50	2.06 (≈ 4.38 µM)	–	0.125	–	–	–	–	–
COc1ncc(C2CCCC2)cc1C(c1ccccc1)C(O)(CCN(C)C)c1cccc2ccccc12 (stereo not drawn) [Compound 63]	–	> 50	–	52.9 (≈ 107 µM)	–	–	–	0.75	1.41	<0.0625
COc1ncc(-c2ccccc2)cc1C(c1ccc(F)cc1)C(O)(CCN(C)C)c1ccccc1 (stereo not drawn) [Compound 70, 4-(dimethylamino)-1-(4-fluorophenyl)-1-(2-methoxy-5-phenylpyridin-3-yl)-2-phenylbutan-2-ol]	1.49	> 50	1.33 (≈ 2.83 µM)	13.7 (≈ 29.1 µM)	0.125	–	–	–	–	–
COc1cccc(C(c2cc(-c3ccccc3)cnc2OC)C(O)(CCN(C)C)c2ccccc2)c1OC (stereo not drawn) [Compound 71, 1-(2,3-dimethoxyphenyl)-4-(dimethylamino)-1-(2-methoxy-5-phenylpyridin-3-yl)-2-phenylbutan-2-ol]	1.4	> 50	1.47 (≈ 2.87 µM)	–	≤ 0.0625	–	–	–	–	–
COc1ncc(C2CCOCC2)cc1C(c1ccccc1)C(O)(CCN(C)C)c1cccc2ccccc12 (stereo not drawn) [Compound 75, 4-(dimethylamino)-1-(2-methoxy-5-(tetrahydro-2H-pyran-4-yl)pyridin-3-yl)-2-(naphthalen-1-yl)-1-phenylbutan-2-ol]	1.32	> 50	2.73 (≈ 5.35 µM)	22.5 (≈ 44 µM)	0.125	–	–	–	–	–
COc1ncc(-c2ccccc2F)cc1C(c1ccccc1)C(O)(CCN(C)C)c1cccc2ccccc12 (stereo not drawn) [Compound 83, 4-(dimethylamino)-1-(5-(2-fluorophenyl)-2-methoxypyridin-3-yl)-2-(naphthalen-1-yl)-1-phenylbutan-2-ol]	1.41	> 50	0.57 (≈ 1.09 µM)	–	0.125	–	–	–	–	–
COc1ncc(-c2cccc(F)c2)cc1C(c1ccccc1)C(O)(CCN(C)C)c1cccc2ccccc12 (stereo not drawn) [Compound 87, 4-(dimethylamino)-1-(5-(3-fluorophenyl)-2-methoxypyridin-3-yl)-2-(naphthalen-1-yl)-1-phenylbutan-2-ol]	0.48	> 50	1.18 (≈ 2.27 µM)	62.8 (≈ 121 µM)	≤ 0.0625	–	–	–	–	–
COc1ncc(-c2cccc(Cl)c2)cc1C(c1ccccc1)C(O)(CCN(C)C)c1cccc2ccccc12 (stereo not drawn) [Compound 111]	2.73	> 50	1.36 (≈ 2.53 µM)	–	0.5	–	–	–	–	–
COc1ncc(-c2ccc(Br)cc2)cc1C(c1ccccc1)C(O)(CCN(C)C)c1cc(F)ccc1F (stereo not drawn) [Compound 308, 1-(5-(4-bromophenyl)-2-methoxypyridin-3-yl)-2-(2,5-difluorophenyl)-4-(dimethylamino)-1-phenylbutan-2-ol]	0.09	> 32	0.19 (≈ 0.335 µM)	> 64	–	–	–	–	–	–
COc1ncc(-c2ccc(Cl)cc2)cc1C(c1ccc(Cl)cc1)C(O)(CCN(C)C)c1cccc2ccccc12 (stereo not drawn) [Compound 329]	0.08	> 32	2.02 (≈ 3.53 µM)	> 64	–	–	–	–	–	–
COc1cc(-c2cnc(OC)c(C(c3ccccc3)C(O)(CCN(C)C)c3cccc4ccccc34)c2)ccc1Cl (stereo not drawn) [Compound 379]	–	–	–	61.8 (≈ 109 µM)	0.125	–	–	–	–	–
NNC(=O)c1ccncc1 [isoniazide, isoniazid, reference compound]	–	–	–	–	–	0.37	0.53	–	–	–
CO[C@H]1/C=C/O[C@@]2(C)Oc3c(C)c(O)c4c(O)c(c(/C=N/N5CCN(C)CC5)c(O)c4c3C2=O)NC(=O)/C(C)=C\C=C\[C@H](C)[C@H](O)[C@@H](C)[C@@H](O)[C@@H](C)[C@H](OC(C)=O)[C@@H]1C [rifampin, reference compound]	–	–	–	–	–	0.12	0.24	–	–	–
